Data as given in publication PMC5926414 (Japanese Journal of Cancer Research : Gann, 2000).
Read-outs that look alike come from different tables or passages of the source. Square brackets hold non-standard residues; d marks the D form. Peptide text beside a SMILES is read from it. * marks the point of attachment. X1 = COC1=CC(=O)N(C(=O)[C@@H](O*)C(C)C)[C@H]1Cc1ccccc1; NMe2Val = CC(C)[C@@H](C(=O)*)N(C)C; NMeV = CN[C@H](C(=O)O)C(C)C

Experiments:
porcine brain tubulin [1] = biological target: T1, porcine brain tubulin (Sus scrofa, UniProt P02550+P02554); format: binding
T1 sequence (P02550 whole entry): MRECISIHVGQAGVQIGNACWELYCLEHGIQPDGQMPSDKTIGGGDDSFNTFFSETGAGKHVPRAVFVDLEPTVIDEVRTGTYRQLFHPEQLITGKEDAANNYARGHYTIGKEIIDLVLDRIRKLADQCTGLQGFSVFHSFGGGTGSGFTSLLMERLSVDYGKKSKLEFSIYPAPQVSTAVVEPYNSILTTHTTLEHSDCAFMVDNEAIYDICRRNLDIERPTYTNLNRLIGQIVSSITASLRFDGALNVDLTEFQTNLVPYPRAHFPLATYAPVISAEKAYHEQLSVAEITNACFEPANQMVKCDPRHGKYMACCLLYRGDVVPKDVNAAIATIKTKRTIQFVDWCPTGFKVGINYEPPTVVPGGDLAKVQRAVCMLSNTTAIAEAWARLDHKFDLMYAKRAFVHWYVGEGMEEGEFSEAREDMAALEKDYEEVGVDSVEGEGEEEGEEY
T1 sequence (P02554 whole entry): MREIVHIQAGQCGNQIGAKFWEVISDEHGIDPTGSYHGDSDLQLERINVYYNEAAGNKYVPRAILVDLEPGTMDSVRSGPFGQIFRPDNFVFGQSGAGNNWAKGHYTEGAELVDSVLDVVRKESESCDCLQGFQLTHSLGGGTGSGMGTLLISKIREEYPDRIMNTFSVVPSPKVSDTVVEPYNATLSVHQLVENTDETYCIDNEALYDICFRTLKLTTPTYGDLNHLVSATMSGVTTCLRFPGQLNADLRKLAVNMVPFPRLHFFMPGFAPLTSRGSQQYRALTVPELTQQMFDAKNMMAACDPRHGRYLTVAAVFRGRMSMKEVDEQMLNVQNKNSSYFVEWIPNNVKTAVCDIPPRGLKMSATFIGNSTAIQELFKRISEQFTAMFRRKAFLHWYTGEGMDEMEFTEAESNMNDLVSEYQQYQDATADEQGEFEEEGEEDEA

[2] = biological target: T2, porcine brain microtubule protein (Sus scrofa, UniProt P02550+P02554); assay: biochemical
T2 sequence (P02550 whole entry): as the sequence (P02550 whole entry) above
T2 sequence (P02554 whole entry): as the sequence (P02554 whole entry) above

bovine brain tubulin [3] = biological target: T3, bovine brain tubulin (Bos taurus, UniProt P81947+Q6B856); assay: biochemical
T3 sequence (P81947 whole entry): as the sequence (P02550 whole entry) above, with S136L, G232S, A265I, T340S, E358Q counted along it
T3 sequence (Q6B856 whole entry): as the sequence (P02554 whole entry) above, with A55T, V170M, A296S, V316I, G440E, E441G counted along it

porcine brain tubulin [4] = format: binding
porcine brain tubulin [5] = settings: ref 28 (Huang et al.); cited from earlier work
[6] = biological target: T2, porcine brain microtubule protein; assay: biochemical; settings: read-out: inhibition of microtubule polymerization, agent alone
porcine brain tubulin [7] = format: biochemical
porcine brain tubulin [8] = biological target: T1, porcine brain tubulin; assay: biochemical; format: binding
bovine brain tubulin [9] = biological target: T3, bovine brain tubulin; settings: read-out: IC50, inhibition of monosodium glutamate-induced tubulin polymerization; in 4% DMSO; ref 8 (Bai et al.); cited from earlier work

CC(=O)O[C@H]1C(=O)[C@@]2(C)[C@H]([C@H](OC(=O)c3ccccc3)[C@]3(O)C[C@H](OC(=O)[C@H](O)[C@@H](NC(=O)c4ccccc4)c4ccccc4)C(C)=C1C3(C)C)[C@]1(OC(C)=O)CO[C@@H]1C[C@@H]2O [PTX, paclitaxel]
displacement of [3H]TZT-1027 on tubulin (porcine brain tubulin [1]): did not have remarkable inhibitory effects | displacement of [3H]VLB on tubulin (porcine brain tubulin [1]): did not have remarkable inhibitory effects

CC[C@]1(O)C[C@H]2CN(CCc3c([nH]c4ccccc34)[C@@](C(=O)OC)(c3cc4c(cc3OC)N(C=O)[C@H]3[C@@](O)(C(=O)OC)[C@H](OC(C)=O)[C@]5(CC)C=CCN6CC[C@]43[C@@H]65)C2)C1 [VCR, vincristine]
displacement of [3H]TZT-1027 on tubulin (porcine brain tubulin [1]): the displacement was not complete | IC50 [2]: 1600 ± 400 nM | inhibitory effect on microtubule polymerization at high concentration [2]: slight decrease in inhibitory effect

CC[C@]1(O)C[C@@H]2CN(CCc3c([nH]c4ccccc34)[C@@](C(=O)OC)(c3cc4c(cc3OC)N(C)[C@H]3[C@@](O)(C(=O)OC)[C@H](OC(C)=O)[C@]5(CC)C=CCN6CC[C@]43[C@@H]65)C2)C1 [VLB, vinblastine]
displacement of [3H]TZT-1027 on tubulin (porcine brain tubulin [1]): only incompletely | IC50 (bovine brain tubulin [3]): 600 nM | effect on tubulin polymerization at high concentration (bovine brain tubulin [3]): aggregation | IC50 [2]: 2700 ± 600 nM | inhibitory effect on microtubule polymerization at high concentration [2]: slight decrease in inhibitory effect | inhibition of [3H]GTP binding to tubulin (porcine brain tubulin [4]): no inhibitory effect | concentration with inhibitory effect on the binding of GTP to tubulin (porcine brain tubulin [5]): above 100 M | inhibition at 3 µM [6]: 64.7% | inhibition of GTP hydrolysis on tubulin (porcine brain tubulin [7]): concentration-dependent inhibition | Bmax, binding to tubulin (one binding site) (porcine brain tubulin [8]): 6.0±0.26 nM/mg protein | Kd (porcine brain tubulin [8]): 200 ± 40 nM

CC[C@H](C)[C@@H]([C@@H](CC(=O)N1CCC[C@H]1[C@H](OC)[C@@H](C)C(=O)N[C@@H](Cc1ccccc1)c1nccs1)OC)N(C)C(=O)[C@@H](NC(=O)[C@H](C(C)C)N(C)C)C(C)C [dolastatin 10]
displacement of [3H]TZT-1027 on tubulin (porcine brain tubulin [1]): completely displaced | displacement of [3H]VLB on tubulin (porcine brain tubulin [1]): completely displaced | IC50 (bovine brain tubulin [3]): 2800 nM | effect on tubulin polymerization at high concentration (bovine brain tubulin [3]): no further increase in inhibition | inhibition at 3 µM (bovine brain tubulin [3]; read-out: inhibition of monosodium glutamate-induced tubulin polymerization): 88% | IC50 (bovine brain tubulin [9]): 1200 nM | IC50 [2]: 2300 ± 700 nM | inhibition of [3H]GTP binding to tubulin (porcine brain tubulin [4]): concentration-dependent inhibition | inhibition of GTP hydrolysis on tubulin (porcine brain tubulin [7]): concentration-dependent inhibition

COC1=CC(=O)N(C(=O)[C@@H](OC(=O)[C@@H]2CCCN2C(=O)[C@@H]2CCCN2C(=O)[C@H](C(C)C)N(C)C(=O)[C@@H](NC(=O)[C@H](C(C)C)N(C)C)C(C)C)C(C)C)[C@H]1Cc1ccccc1 [dolastatin 15] (NMe2Val-V[NMeV]PP-X1)
displacement of [3H]TZT-1027 on tubulin (porcine brain tubulin [1]): did not have remarkable inhibitory effects | displacement of [3H]VLB on tubulin (porcine brain tubulin [1]): did not have remarkable inhibitory effects | inhibition of GTP hydrolysis on tubulin (porcine brain tubulin [7]): concentration-dependent inhibition
